According to US9315494B2, “Alkyl-amide-substituted pyridyl compounds useful as modulators of IL-12, IL-23 and/or IFNα responses” (Bristol-Myers Squibb Company, priority 2012, dated 2016):
Where two headings read alike, the source gives them in different places.

Legend:
[1] = tested on: IL-23-stimulated STAT-dependent luciferase reporter in Kit225 T cells; assay: Kit225 T cell assay, IL-23 stimulated STAT-dependent luciferase reporter; type: cell-based, human
Method in brief: (§1)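 Kit225 T cells carrying a stably integrated STAT-luciferase reporter, in RPMI with 10% heat-inactivated FBS, were stimulated with 20 ng/mL IL-23 or 200 U/mL IFNα for 5-6 h. Readout was luminescence from the luciferase reporter.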

[2] = tested on: IFNα-stimulated STAT-dependent luciferase reporter in Kit225 T cells; assay: Kit225 T cell assay, IFNα stimulated STAT-dependent luciferase reporter; type: cell-based, human
Method in brief: as §1

[3] = Kit225 T cells, 20 ng/mL human recombinant IL-23, 5-6 hours, luciferase, read-out: IL23 (Kit225 T Cell Inhibition Data)
[4] = Kit225 T cells, 200 U/mL human recombinant IFNα, 5-6 hours, luciferase, read-out: IFNα (Kit225 T Cell Inhibition Data)
[5] = Homo sapiens, KIT225, read-out: IL23 (Kit225 T Cell Inhibition Data)
[6] = Homo sapiens, KIT225, read-out: IFNα (Kit225 T Cell Inhibition Data)

SMILES | IC50 [1, 3] [nM] | IC50 [2, 4] [nM] | IC50 [1, 5] [nM] | IC50 [2, 6] [nM]
CNC(=O)c1cnc(Nc2ccc(F)cn2)cc1Nc1cccc(C#N)c1OC [Example 357] | 120 | 30 | – | –
CNC(=O)c1cnc(Nc2cc(C)c(F)cn2)cc1Nc1cccc(-c2nnc(C)o2)c1OC [Example 359] | 20 | 10 | – | –
CNC(=O)c1cnc(Nc2cc(C)c(F)cn2)cc1Nc1cccc(-c2nnc[nH]2)c1OC [Example 360] | 30 | 7.74 | – | –
CNC(=O)c1cnc(Nc2cc(C)nc(C)n2)cc1Nc1cccc(-c2nnc(C)o2)c1OC [Example 361] | 60 | 20 | – | –
CNC(=O)c1cnc(Nc2cc(C)nc(C)n2)cc1Nc1cccc(-c2nnc[nH]2)c1OC [Example 362] | 20 | 10 | – | –
CNC(=O)c1cnc(Nc2cc(C)c(F)cn2)cc1Nc1cccc(-c2nnc(C)[nH]2)c1OC [Example 364, 6-((5-fluoro-4-methylpyridin-2-yl)amino)-4-((2-methoxy-3-(5-methyl-4H-1,2,4-triazol-3-yl)phenyl)amino)-N-methylnicotinamide] | 10 | 10 | – | –
CNC(=O)c1cnc(Nc2cc(C)nc(C)n2)cc1Nc1cccc(-c2nc(C)n(C)n2)c1OC [Example 366] | 20 | 9.22 | – | –
CNC(=O)c1cnc(Nc2cc(C)nc(C)n2)cc1Nc1cccc(-c2nc(C)nn2C)c1OC [Example 367] | 20 | 30 | – | –
CNC(=O)c1cnc(Nc2cc(C)nc(C)n2)cc1Nc1cccc(-c2nc(C)n(CCF)n2)c1OC [Example 368] | 9.45 | 10 | – | –
CNC(=O)c1cnc(Nc2cc(C)nc(C)n2)cc1Nc1cccc(-c2nc(C)n(CC(F)(F)F)n2)c1OC [Example 370] | – | – | 30 | 30
CNC(=O)c1cnc(Nc2cc(C)c(F)cn2)cc1Nc1cccc(-c2ncn(C)n2)c1OC [Example 371] | 4.89 | 3.99 | – | –
CNC(=O)c1cnc(Nc2cc(C)nc(C)n2)cc1Nc1cccc(-c2ncn(C)n2)c1OC [Example 372] | 10 | 10 | – | –
CNC(=O)c1cnc(Nc2ccc(F)cn2)cc1Nc1cccc(-c2ncn(C)n2)c1OC [Example 373] | 6.22 | 8.34 | – | –
CNC(=O)c1cnc(Nc2ccccn2)cc1Nc1cccc(-c2ncn(C)n2)c1OC [Example 374] | 8.36 | 6.98 | – | –
CNC(=O)c1cnc(Nc2ccc(C(F)(F)F)cn2)cc1Nc1cccc(-c2ncn(C)n2)c1OC [Example 375] | 20 | 9.47 | – | –
CNC(=O)c1cnc(Nc2ccc(C#N)cn2)cc1Nc1cccc(-c2ncn(C)n2)c1OC [Example 376] | 9.35 | 3.47 | – | –
CNC(=O)c1cnc(Nc2cc(C)nc(C)n2)cc1Nc1cccc(-c2ncn(CCF)n2)c1OC [Example 377] | 20 | 20 | – | –
CNC(=O)c1cnc(Nc2cc(C)nc(C)n2)cc1Nc1cccc(-c2ncn(CC(F)F)n2)c1OC [Example 378] | 50 | 10 | – | –
CNC(=O)c1cnc(Nc2cc(C)nc(C)n2)cc1Nc1cccc(-c2ncnn2CC(F)F)c1OC [Example 379] | 80 | 30 | – | –
CNC(=O)c1cnc(Nc2cc(C)nc(C)n2)cc1Nc1cccc(-c2ncn(CC(F)(F)F)n2)c1OC [Example 380] | 40 | 30 | – | –

SMILES | IC50 [1, 3] [nM] | IC50 [2, 4] [nM] | IC50 [1, 5] [nM] | IC50 [2, 6] [nM]
CNC(=O)c1cnc(Nc2cc(C)nc(C)n2)cc1Nc1cccc(-c2ncnn2CC(F)(F)F)c1OC [Example 381] | 50 | 20 | – | –
CNC(=O)c1cnc(Nc2cc(C)nc(C)n2)cc1Nc1cccc(-c2ncn(CC(C)(C)O)n2)c1OC [Example 384] | 120 | 170 | – | –
CNC(=O)c1cnc(Nc2cc(C)c(F)cn2)cc1Nc1cccc(-c2ncnn2C)c1OC [Example 385] | – | – | 70 | 20
CNC(=O)c1cnc(Nc2cc(C)c(F)cn2)cc1Nc1cccc(-c2nc(C)nn2C)c1OC [Example 386] | – | – | 20 | 10
CNC(=O)c1cnc(Nc2cc(C)c(F)cn2)cc1Nc1cccc(-c2ncn(C)n2)c1OC(F)F [Example 388] | 50 | 20 | – | –
CNC(=O)c1cnc(Nc2cc(C)c(F)cn2)cc1Nc1cccc(-c2nnn[nH]2)c1OC [Example 390] | 1030 | 330 | – | –
CNC(=O)c1cnc(Nc2cc(C)c(F)cn2)cc1Nc1cccc(-c2ccnn2C)c1OC [Example 392] | 170 | 70 | – | –
CNC(=O)c1cnc(Nc2cc(C)nc(C)n2)cc1Nc1cccc(-c2ccnn2C)c1OC [Example 394] | 80 | 30 | – | –
[2H]C([2H])([2H])NC(=O)c1cnc(Nc2cc(C)nc(C)n2)cc1Nc1cccc(-c2cnn(C)c2)c1OC [Example 397] | 60 | 8.77 | – | –
[2H]C([2H])([2H])NC(=O)c1cnc(Nc2ccccn2)cc1Nc1cccc(-c2cnn(C)c2)c1OC [Example 398] | 20 | 20 | – | –
[2H]C([2H])([2H])NC(=O)c1cnc(Nc2cc(C)c(F)cn2)cc1Nc1cccc(-c2cnn(C)c2)c1OC [Example 399] | 50 | 50 | – | –
CCc1cc(C#N)ccc1Nc1cc(Nc2cc(C)nc(C)n2)ncc1C(=O)NC [Example 401] | 480 | 440 | – | –
CCc1ncccc1Nc1cc(Nc2cc(C)nc(C)n2)ncc1C(=O)NC [Example 402] | 250 | 330 | – | –
CNC(=O)c1cnc(Nc2cc(NC)nc(C)n2)cc1Nc1cccnc1OC [Example 403] | 240 | 290 | – | –
[2H]C([2H])([2H])NC(=O)c1cnc(Nc2cc(C)nc(C)n2)cc1Nc1cccc(-c2csc(C)n2)c1OC [Example 404, 6-((2,6-dimethylpyrimidin-4-yl)amino)-4-((2-methoxy-3-(2-methylthiazol-4-yl)phenyl)amino)-N-trideuteromethylnicotinamide] | 4.4 | 8.63 | – | –
[2H]C([2H])([2H])NC(=O)c1cnc(Nc2cc(CO)ccn2)cc1Nc1cccc(-c2csc(C)n2)c1OC [Example 405] | 20 | 10 | – | –
CNC(=O)c1cnc(Nc2ccc(N3CCOCC3)cn2)cc1Nc1cc(F)cc(F)c1OC [Example 406] | 250 | 100 | – | –
CNC(=O)c1cnc(Nc2ccn(C)n2)cc1Nc1cc(F)cc(F)c1OC [Example 407] | 90 | 90 | – | –
CNC(=O)c1cnc(Nc2ccn(C(C)C)n2)cc1Nc1cc(F)cc(F)c1OC [Example 408] | 680 | 430 | – | –
CNC(=O)c1cnc(Nc2cc(C)nc(C)n2)cc1Nc1cccc(F)c1OC [Example 410] | 20 | 8.61 | – | –

SMILES | IC50 [1, 3] [nM] | IC50 [2, 4] [nM] | IC50 [1, 5] [nM] | IC50 [2, 6] [nM]
CNC(=O)c1cnc(Nc2cc(C)c(F)cn2)cc1Nc1ccc(C(=O)N2CCCC2)cc1S(C)(=O)=O [Example 411] | 370 | 210 | – | –
CNC(=O)c1cnc(Nc2cc(C)c(F)cn2)cc1Nc1ccc(C(=O)N(C)C)cc1S(C)(=O)=O [Example 412] | 450 | 240 | – | –
CNC(=O)c1cnc(Nc2cc(C)c(F)cn2)cc1Nc1ccc(C(=O)N2CC(F)(F)C2)cc1S(C)(=O)=O [Example 413] | 470 | 460 | – | –
CNC(=O)c1cnc(Nc2ccc(C)nn2)cc1Nc1ccccc1S(C)(=O)=O [Example 414] | 650 | 280 | – | –
CNC(=O)c1cnc(Nc2cc(C)c(C)nn2)cc1Nc1ccccc1S(C)(=O)=O [Example 415] | 320 | 210 | – | –
CNC(=O)c1cnc(Nc2cnc(C)c(C)n2)cc1Nc1ccccc1S(C)(=O)=O [Example 416] | 90 | 80 | – | –
CNC(=O)c1cnc(Nc2ccc3cnccc3n2)cc1Nc1ccccc1S(C)(=O)=O [Example 417] | 260 | 330 | – | –
CNC(=O)c1cnc(Nc2cc(COC)nc(C)n2)cc1Nc1ccccc1S(C)(=O)=O [Example 418] | 350 | 210 | – | –
CNC(=O)c1cnc(Nc2cc(OC)ncn2)cc1Nc1ccccc1S(C)(=O)=O [Example 419] | 170 | 350 | – | –
CNC(=O)c1cnc(Nc2cc(C(C)(C)C)ncn2)cc1Nc1ccccc1S(C)(=O)=O [Example 421] | 460 | 480 | – | –
CCN(CC)CCCNc1cc(Nc2cc(Nc3ccccc3S(C)(=O)=O)c(C(=O)NC)cn2)nc(C)n1 [Example 423] | 380 | 370 | – | –
CNC(=O)c1cnc(Nc2cc(NCc3ccccc3)ncn2)cc1Nc1ccccc1S(C)(=O)=O [Example 424] | 490 | 460 | – | –
CNC(=O)c1cnc(Nc2cc(N(C)Cc3ccccc3)ncn2)cc1Nc1ccccc1S(C)(=O)=O [Example 425] | 670 | 380 | – | –
CNC(=O)c1cnc(Nc2cc(F)ccn2)cc1Nc1ccccc1NS(C)(=O)=O [Example 427] | 140 | 150 | – | –
CNC(=O)c1cnc(Nc2ccccn2)cc1Nc1ccccc1NS(C)(=O)=O [Example 428] | 90 | 110 | – | –
CNC(=O)c1cnc(Nc2ccc(F)cn2)cc1Nc1ccccc1S(N)(=O)=O [Example 429] | 250 | 150 | – | –
CNC(=O)c1cnc(Nc2ccccn2)cc1Nc1ccccc1S(N)(=O)=O [Example 430] | 160 | 50 | – | –
CNC(=O)c1cnc(Nc2cc(C)c(F)cn2)cc1Nc1ccccc1S(N)(=O)=O [Example 431] | 40 | 80 | – | –
CNC(=O)c1cnc(Nc2cc(C)c(F)cn2)cc1Nc1ccccc1S(C)(=O)=O [Example 432] | 30 | 20 | – | –
CNC(=O)c1cnc(Nc2cnc(OC)cn2)cc1Nc1ccccc1S(C)(=O)=O [Example 433] | 290 | 220 | – | –
